Measured values reported in patent US7449465B2, “Triazolopyrimidine derivatives as glycogen synthase kinase 3 inhibitors” (Janssen Pharmaceutica, N.V., priority 2003, dated 2008).

What was measured:
GSK3β = GSK3β (Homo sapiens, UniProt P49841); test: GSK3beta assay (SPA, biotinylated phosphorylated CREB peptide, ATP-P33); format: biochemical; details: ranges of pIC50 (−log IC50 (M)); 1 μM ATP, room temperature, one hour; read-out: GSK3b pIC50 (converted)
Protocol: (§1) GSK3beta assays were performed at room temperature in a 100 μl reaction volume of 25 mM Tris (pH 7.4) containing 10 mM MgCl2.6H2O, 1 mM DTI, 0.1 mgiml BSA, 5% glycerol and containing 5.7 ng/μl GSK3β, 5 μM biotinylated phosphorylated CREB peptide, 1 μM ATP, 0.85 μCi/ml ATP-P^33 and a suitable amount of a test compound of formula (I). After one hour, the reaction was terminated by adding 70 μl of Stop mix (0.1 mM ATP, 5 mg/ml streptavidin coated PVT SPA bead pH 11.0). The beads to which the phosphorylated CREB peptide is attached were allowed to settle overnight and the radioactivity of the beads was counted in a microtiterplate scintillation counter and compared with the results obtained in a control experiment (without the presence of a test compound) in order to determine the percentage of GSK3β inhibition. The IC50 value, i.e. the concentration (M) of the test compound at which 50% of GSK3β is inhibited, was calculated from the dose response curve obtained by performing the above-described GSK3β assay in the presence of different amounts of the test compound.

GSK3alpha = GSK3alpha (Homo sapiens, UniProt P49840); test: GSK3alpha assay (same as the GSK3beta assay, 0.25 ng/μl GSK3alpha); format: biochemical; details: ranges of pIC50 (−log IC50 (M)), 1 μM ATP, read-out: GSK3a pIC50 (converted)
Chain of GSK3alpha (P49840 whole entry, species assumed): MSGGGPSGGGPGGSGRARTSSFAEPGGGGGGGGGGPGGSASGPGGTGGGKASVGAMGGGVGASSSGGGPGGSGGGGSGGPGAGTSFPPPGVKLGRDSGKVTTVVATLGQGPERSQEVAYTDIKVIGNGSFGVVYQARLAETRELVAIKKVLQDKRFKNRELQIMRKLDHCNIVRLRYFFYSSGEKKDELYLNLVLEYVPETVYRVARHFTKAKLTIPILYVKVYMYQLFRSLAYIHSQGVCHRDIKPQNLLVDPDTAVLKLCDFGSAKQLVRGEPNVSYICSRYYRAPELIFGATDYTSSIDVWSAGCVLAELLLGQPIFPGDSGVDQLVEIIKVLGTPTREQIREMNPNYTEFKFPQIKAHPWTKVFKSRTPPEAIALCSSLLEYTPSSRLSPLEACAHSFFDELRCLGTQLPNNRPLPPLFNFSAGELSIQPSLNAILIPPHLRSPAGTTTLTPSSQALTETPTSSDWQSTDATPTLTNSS
Protocol: as §1
The GSK3alpha assay was performed in the same way as described above for the GSK3beta assay except for the concentration of GSK3alpha which is 0.25 ng/μl.

Chain of GSK3β (P49841 whole entry, species assumed): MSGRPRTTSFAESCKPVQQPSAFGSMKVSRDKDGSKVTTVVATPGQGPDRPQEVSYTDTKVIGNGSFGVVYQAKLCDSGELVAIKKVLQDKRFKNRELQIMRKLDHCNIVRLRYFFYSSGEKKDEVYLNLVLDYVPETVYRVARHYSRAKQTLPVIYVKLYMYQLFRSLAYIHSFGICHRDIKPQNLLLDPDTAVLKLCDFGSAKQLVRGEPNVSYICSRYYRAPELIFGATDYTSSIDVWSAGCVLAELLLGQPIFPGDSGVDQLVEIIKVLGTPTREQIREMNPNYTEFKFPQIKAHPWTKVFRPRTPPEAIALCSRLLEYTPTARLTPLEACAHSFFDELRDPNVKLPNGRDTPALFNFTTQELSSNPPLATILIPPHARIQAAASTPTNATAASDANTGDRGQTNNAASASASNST

SMILES	IC50 (GSK3β)	IC50 (GSK3alpha)
COc1ccc(-n2nnc3cnc(Nc4cccc(-c5nccn5C)c4)nc32)cc1 [Compound 3]	< 1e-08 M	
Cn1ccnc1-c1cccc(Nc2ncc3nnn(-c4cccc(C(N)=O)c4)c3n2)c1 [Compound 7]	1e-08 to 1e-07 M	< 1e-08 M
Cn1nccc1-c1cccc(Nc2ncc3nnn(-c4cccc(Br)c4)c3n2)c1 [Compound 8]	> 1e-07 M	< 1e-08 M
c1ccc(-n2nnc3cnc(Nc4ccc(N5CCOCC5)cc4)nc32)cc1 [Compound 11]	1e-08 to 1e-07 M	1e-08 to 1e-07 M
Cc1cccc(-n2nnc3cnc(Nc4cccc(-c5nccn5C)c4)nc32)c1 [Compound 14]	< 1e-08 M	
COc1cccc(-n2nnc3cnc(Nc4cccc(-c5cnco5)c4)nc32)c1 [Compound 16]	< 1e-08 M	< 1e-08 M
COc1cccc(-n2nnc3cnc(Nc4cccc(-c5nccn5C)c4)nc32)c1 [Compound 17]	< 1e-08 M	
COc1cccc(-n2nnc3cnc(Nc4cccc(-c5nnn(C)n5)c4)nc32)c1 [Compound 18]	< 1e-08 M	< 1e-08 M
COc1cccc(-n2nnc3cnc(Nc4cccc(-c5ccnc(N)n5)c4)nc32)c1 [Compound 19]	< 1e-08 M	< 1e-08 M
Fc1cccc(-n2nnc3cnc(Nc4cccc(-c5cnco5)c4)nc32)c1 [Compound 20]	< 1e-08 M	< 1e-08 M
Cc1nc(-c2cccc(Nc3ncc4nnn(-c5cccc(F)c5)c4n3)c2)cs1 [Compound 21]	< 1e-08 M	< 1e-08 M
Fc1cccc(-n2nnc3cnc(Nc4cccc(-c5cc[nH]n5)c4)nc32)c1 [Compound 22]	< 1e-08 M	< 1e-08 M
Cn1nccc1-c1cccc(Nc2ncc3nnn(-c4cccc(F)c4)c3n2)c1 [Compound 23]	< 1e-08 M	< 1e-08 M
Cn1ccnc1-c1cccc(Nc2ncc3nnn(-c4cccc(F)c4)c3n2)c1 [Compound 24]	< 1e-08 M	< 1e-08 M
Cn1cc(Br)c(-c2cccc(Nc3ncc4nnn(-c5cccc(F)c5)c4n3)c2)n1 [Compound 25]	1e-08 to 1e-07 M	1e-08 to 1e-07 M
Cn1cnnc1-c1cccc(Nc2ncc3nnn(-c4cccc(F)c4)c3n2)c1 [Compound 26]	< 1e-08 M	< 1e-08 M
Fc1cccc(-n2nnc3cnc(Nc4cccc(-c5nnn[nH]5)c4)nc32)c1 [Compound 27]	< 1e-08 M	< 1e-08 M
Cn1nnnc1-c1cccc(Nc2ncc3nnn(-c4cccc(F)c4)c3n2)c1 [Compound 28]	< 1e-08 M	< 1e-08 M
Cn1nnc(-c2cccc(Nc3ncc4nnn(-c5cccc(F)c5)c4n3)c2)n1 [Compound 29]	< 1e-08 M	< 1e-08 M
Fc1cccc(-n2nnc3cnc(Nc4cccc(-c5cncnc5)c4)nc32)c1 [Compound 31]	< 1e-08 M	
Cc1nccc(-c2cccc(Nc3ncc4nnn(-c5cccc(F)c5)c4n3)c2)n1 [Compound 32]	< 1e-08 M	< 1e-08 M
Nc1nccc(-c2cccc(Nc3ncc4nnn(-c5cccc(F)c5)c4n3)c2)n1 [Compound 33]	< 1e-08 M	< 1e-08 M

SMILES	IC50 (GSK3β)	IC50 (GSK3alpha)
CNc1nccc(-c2cccc(Nc3ncc4nnn(-c5cccc(F)c5)c4n3)c2)n1 [Compound 34]	< 1e-08 M	< 1e-08 M
N#CNc1nccc(-c2cccc(Nc3ncc4nnn(-c5cccc(F)c5)c4n3)c2)n1 [Compound 35]	< 1e-08 M	< 1e-08 M
CN1CCN(c2cccc(Nc3ncc4nnn(-c5cccc(F)c5)c4n3)c2)CC1 [Compound 36]	< 1e-08 M	< 1e-08 M
Fc1cccc(-n2nnc3cnc(Nc4ccc(-n5cccc5)cc4)nc32)c1 [Compound 37]	> 1e-07 M	
Fc1cccc(-n2nnc3cnc(Nc4ccc(-c5cnco5)cc4)nc32)c1 [Compound 38]	1e-08 to 1e-07 M	1e-08 to 1e-07 M
Fc1cccc(-n2nnc3cnc(Nc4ccc(-n5cccn5)cc4)nc32)c1 [Compound 39]	1e-08 to 1e-07 M	> 1e-07 M
Fc1cccc(-n2nnc3cnc(Nc4ccc(-n5cncn5)cc4)nc32)c1 [Compound 40]	< 1e-08 M	< 1e-08 M
CCC(C)n1ncn(-c2ccc(Nc3ncc4nnn(-c5cccc(F)c5)c4n3)cc2)c1=O (centres unmarked) [Compound 41]	1e-08 to 1e-07 M	1e-08 to 1e-07 M
Cn1nnc(-c2ccc(Nc3ncc4nnn(-c5cccc(F)c5)c4n3)cc2)n1 [Compound 42]	< 1e-08 M	1e-08 to 1e-07 M
Brc1cccc(-n2nnc3cnc(Nc4cccc(C5=NCNC5)c4)nc32)c1 [Compound 43]	< 1e-08 M	< 1e-08 M
Brc1cccc(-n2nnc3cnc(Nc4cccc(-c5ccn[nH]5)c4)nc32)c1 [Compound 44]	1e-08 to 1e-07 M	< 1e-08 M
Cn1cc(Br)c(-c2cccc(Nc3ncc4nnn(-c5cccc(Br)c5)c4n3)c2)n1 [Compound 45]	1e-08 to 1e-07 M	
O=c1[nH]nc(-c2cccc(Nc3ncc4nnn(-c5cccc(Br)c5)c4n3)c2)[nH]1 [Compound 46]	1e-08 to 1e-07 M	< 1e-08 M
Brc1cccc(-n2nnc3cnc(Nc4cccc(-c5cncnc5)c4)nc32)c1 [Compound 47]	< 1e-08 M	< 1e-08 M
Cc1nccc(-c2cccc(Nc3ncc4nnn(-c5cccc(Br)c5)c4n3)c2)n1 [Compound 48]	1e-08 to 1e-07 M	
Cn1ccnc1-c1cccc(Nc2ncc3nnn(-c4ccc(Br)cc4)c3n2)c1 [Compound 49]	1e-08 to 1e-07 M	
Brc1cccc(-n2nnc3cnc(Nc4ccc(-c5cc[nH]n5)cc4)nc32)c1 [Compound 50]	1e-08 to 1e-07 M	< 1e-08 M
Brc1cccc(-n2nnc3cnc(Nc4ccc(-n5cncn5)cc4)nc32)c1 [Compound 51]	1e-08 to 1e-07 M	
Brc1cccc(-n2nnc3cnc(Nc4ccc(-c5nnn[nH]5)cc4)nc32)c1 [Compound 52]	< 1e-08 M	< 1e-08 M
Cn1nnc(-c2ccc(Nc3ncc4nnn(-c5cccc(Br)c5)c4n3)cc2)n1 [Compound 53]	1e-08 to 1e-07 M	< 1e-08 M
Brc1cccc(-n2nnc3cnc(Nc4ccc(Nc5ncccn5)cc4)nc32)c1 [Compound 54]	1e-08 to 1e-07 M	< 1e-08 M

Next, values leading:

IC50 (GSK3β)	IC50 (GSK3alpha)	SMILES
1e-08 to 1e-07 M		CSc1ccc(-n2nnc3cnc(Nc4cccc(-c5nccn5C)c4)nc32)cc1 [Compound 55]
1e-08 to 1e-07 M		Cn1ccnc1-c1cccc(Nc2ncc3nnn(-c4ccc(CCO)cc4)c3n2)c1 [Compound 56]
> 1e-07 M		CC(=O)N(C)c1ccc(-n2nnc3cnc(Nc4cccc(-c5nccn5C)c4)nc32)cc1 [Compound 57]
1e-08 to 1e-07 M		Cc1ccc(-n2nnc3cnc(Nc4cccc(-c5nccn5C)c4)nc32)cc1Cl [Compound 60]
1e-08 to 1e-07 M		COc1ccc(-n2nnc3cnc(Nc4cccc(-c5nccn5C)c4)nc32)cc1F [Compound 61]
< 1e-08 M		COc1cc(-n2nnc3cnc(Nc4cccc(-c5nccn5C)c4)nc32)cc(C(F)(F)F)c1 [Compound 63]
< 1e-08 M		Cn1ccnc1-c1cccc(Nc2ncc3nnn(-c4ccc5c(c4)CCC5)c3n2)c1 [Compound 65]
< 1e-08 M		Cn1ccnc1-c1cccc(Nc2ncc3nnn(-c4ccc5c(c4)OCCO5)c3n2)c1 [Compound 66]
< 1e-08 M	< 1e-08 M	c1ccc(-n2nnc3cnc(Nc4cccc(-c5cnco5)c4)nc32)cc1 [Compound 73]
< 1e-08 M	< 1e-08 M	Cn1nnnc1-c1cccc(Nc2ncc3nnn(-c4ccccc4)c3n2)c1 [Compound 74]
1e-08 M	1e-08 to 1e-07 M	OCCc1cccc(-n2nnc3cnc(Nc4cccc(-c5nnn[nH]5)c4)nc32)c1 [Compound 75]
< 1e-08 M	< 1e-08 M	Cn1nnnc1-c1cccc(Nc2ncc3nnn(-c4cccc(CCO)c4)c3n2)c1 [Compound 76]
< 1e-08 M	< 1e-08 M	CN1CCN(c2ccc(Nc3ncc4nnn(-c5cccc(CCO)c5)c4n3)cc2)CC1 [Compound 77]
< 1e-08 M	< 1e-08 M	CN1CCN(Cc2ccc(Nc3ncc4nnn(-c5cccc(CCO)c5)c4n3)cc2)CC1 [Compound 78]
< 1e-08 M	< 1e-08 M	OCCc1cccc(-n2nnc3cnc(Nc4ccc(CN5CCC(O)CC5)cc4)nc32)c1 [Compound 79]
< 1e-08 M	< 1e-08 M	O=C(NCCN1CCOCC1)c1ccc(Nc2ncc3nnn(-c4cccc(CCO)c4)c3n2)cc1 [Compound 81]
1e-08 M	< 1e-08 M	CN1CCN(CCOc2ccc(Nc3ncc4nnn(-c5cccc(CCO)c5)c4n3)cc2)CC1 [Compound 82]
< 1e-08 M	< 1e-08 M	CN1CCN(CCCOc2ccc(Nc3ncc4nnn(-c5cccc(CCO)c5)c4n3)cc2)CC1 [Compound 83]
< 1e-08 M		COCCOCc1cccc(-n2nnc3cnc(Nc4ccc(N5CCOCC5)cc4)nc32)c1 [Compound 107]
	1e-08 to 1e-07 M	Nc1nccc(-c2cccc(Nc3ncc4nnn(-c5cccc(CNC(=O)C6CC6)c5)c4n3)c2)n1 [Compound 119]
1e-08 to 1e-07 M		Cn1ccnc1-c1cccc(Nc2ncc3nnn(-c4ccc5cn[nH]c5c4)c3n2)c1 [Compound 148]
	1e-08 to 1e-07 M	O=C(O)c1cc(Nc2ncc3nnn(-c4cccc(F)c4)c3n2)ccc1N1CCOCC1 [Compound 150]
1e-08 to 1e-07 M		COCCOc1cccc(-n2nnc3cnc(Nc4ccc(OCCN5CCN(C)CC5)cc4)nc32)c1 [Compound 153]
